Experimental data from patent US20110245280A1, “FRUGICIDAL MIXTURES BASED ON TRIAZOLES” (BASF AKTIENGESELLSCHAFT, priority 2002, published 2011).

Test system: mildew of wheat (Erysiphe [syn. Blumeria] graminis form a specialis tritici)
Assay: Activity against mildew of wheat, protective spray on potted wheat seedlings (cultivar Kanzler), greenhouse
Type: in vivo
Conditions: wheat leaves, 7 days after inoculation
Procedure: The active compounds, separately or together, were formulated as a 10% emulsion in a mixture of 63% by weight of cyclohexanone and 27% by weight of emulsifier, and diluted with water to the desired concentration.
Evaluation was carried out by determining the infected leaf areas in percent. These percentages were converted into efficacies. The efficacy (W) was calculated as follows using Abbot's formula:
[formula] • α corresponds to the fungal infection of the treated plants in % and • β corresponds to the fungal infection of the untreated (control) plants in %
An efficacy of 0 means that the infection level of the treated plants corresponds to that of the untreated control plants; an efficacy of 100 means that the treated plants were not infected.
The expected efficacies of the mixtures of the active compounds were determined using Colby's formula [R. S. Colby, Weeds 15, 20-22 (1967)] and compared with the observed efficacies.
Colby's formula: E=x+y−x·y/100 • E expected efficacy, expressed in % of the untreated control, when using the mixture of the active compounds A and B at the concentrations a and b • x efficacy, expressed in % of the untreated control, when using active compound A at a concentration of a • y efficacy, expressed in % of the untreated control, when using active compound B at a concentration of b.
Leaves of wheat seedlings of the cultivar “Kanzler” grown in pots were sprayed to run-off point with an aqueous suspension having the concentration of active compounds stated below. The suspension or emulsion was prepared from a stock solution made using 10% of active compound in a mixture comprising 70% of cyclohexanone, 20% of wetting agent and 10% of emulsifier. 24 hours after the spraycoating had dried on, the leaves dusted with spores of mildew of wheat (Erysiphe [syn. Blumeria] graminis form a specialis tritici). The test plants were then placed in a greenhouse at 20-24° C. and 60-90% relative atmospheric humidity.
After 7 days, the extent of the development of the mildew was determined visually in % infection of the entire leaf area.
The visually determined values for the percentage of diseased leaf area were converted into efficacies in % of the untreated control. An efficacy of 0 means the same disease level as in the untreated control, an efficacy of 100 means a disease level of 0%. The expected efficacies for the active compound combinations were determined using Colby's formula mentioned above and compared with the observed efficacies.

[1] = 0.06 ppm active compound in the spray liquor
[2] = 0.25 ppm active compound in the spray liquor
[3] = 1 ppm active compound in the spray liquor
[4] = 4 ppm active compound in the spray liquor

Structure (SMILES) | Efficacy in % of the untreated control (0.015 ppm active compound in the spray liquor) [%] | Efficacy in % of the untreated control [1] [%] | Efficacy in % of the untreated control [2] [%] | Efficacy in % of the untreated control [3] [%] | Efficacy in % of the untreated control [4] [%]
OC(Cc1ccccc1Cl)(Cn1nc[nH]c1=S)C1(Cl)CC1 (stereo not drawn) [Compound I, 2-[2-(1-chlorocyclopropyl)-3-(2-chlorophenyl)-2-hydroxypropyl]-2,4-dihydro-[1,2,4]-triazole-3-thione] | 0 | 0 | 0 | 0 | 56
Fc1ccc(C2(Cn3cncn3)OC2c2ccccc2Cl)cc1 (stereo not drawn) [Compound II, epoxiconazole] |  | 11 | 33 | 44 | 
CC1(C)CCC(Cc2ccc(Cl)cc2)C1(O)Cn1cncn1 (stereo not drawn) [Compound III, metconazole] |  |  | 11 |  | 
CCCCC(C#N)(Cn1cncn1)c1ccc(Cl)cc1 (stereo not drawn) [Compound XIII, myclobutanil] |  | 0 |  | 11 | 56
